# Tests used:
# [1] = target: T1, voltage-dependent anion channel (VDAC)-1 (Homo sapiens, UniProt P21796); assay: Identification of Compound (5)-binding protein: elution from Compound A-immobilized latex particles, SDS-PAGE, TOF-MS, immunoblotting; details: SK-N-SH nuclear fraction protein; elution with 300 μM Compound (5), 4° C., 1.5 hours; silver staining
# T1 construct: protein was extracted from the nuclear fraction of human neuroblastoma SK-N-SH (ATCC); endogenous in cells; host or cells: SK-N-SH human neuroblastoma cells (ATCC)
# T1 sequence (P21796 whole entry): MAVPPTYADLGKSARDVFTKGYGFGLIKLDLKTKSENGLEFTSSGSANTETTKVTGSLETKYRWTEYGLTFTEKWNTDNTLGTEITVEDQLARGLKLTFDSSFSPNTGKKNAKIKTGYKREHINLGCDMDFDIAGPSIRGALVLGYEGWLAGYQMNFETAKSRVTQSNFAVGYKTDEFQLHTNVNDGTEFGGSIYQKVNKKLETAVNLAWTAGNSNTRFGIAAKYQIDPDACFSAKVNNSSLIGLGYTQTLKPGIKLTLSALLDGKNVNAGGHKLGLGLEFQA
# Experimental: (§1) After 5 mg of carboxyl group-type latex particles obtained in Reference Example 1 was dispersed in dioxane, 23 mg of N-hydroxysuccinimide and 38 mg of water-soluble carbodiimide were added, and they were reacted at room temperature (about 20 to 25° C., the same applies below) for 2 hours. After the obtained succinimide-immobilized particles were washed with methanol, they were reacted with 4 mM Compound A (amino derivative of Compound (5)) in 0.5 mL of 0.2M sodium acetate buffer solution (pH 5.3) at room temperature for 1 hour to thereby immobilize Compound A onto the particles. To the obtained particles, 1M aqueous solution of ethanolamine-hydrochloric acid (pH 8.5) was added, and they were reacted at room temperature or 2 hours to thereby block unreacted groups in the succinimide-immobilized particles, after which the particles were washed with 50% methanol and water to give Compound A-immobilized particles. The Compound A-immobilized particles were dispersed in water to obtain a concentration of 10 mg/mL and stored under refrigeration. […]
# (§2) Subsequently, centrifugation (15, 000×g, 5 minutes) was carried out, the supernatant was removed, and the obtained particles were washed with 0.05TGEMN buffer. […] After centrifugation (15, 000×g, 5 minutes), the protein-containing supernatant was analyzed by SDS-PAGE. […]
# VDAC-3 = target: T2, VDAC-3 (Homo sapiens, UniProt Q9Y277); assay: Identification of Compound (5)-binding protein: elution from Compound A-immobilized latex particles, SDS-PAGE, TOF-MS; details: SK-N-SH nuclear fraction protein; elution with 300 μM Compound (5), 4° C., 1.5 hours; silver staining
# T2 construct: protein was extracted from the nuclear fraction of human neuroblastoma SK-N-SH (ATCC); endogenous in cells; host or cells: SK-N-SH human neuroblastoma cells (ATCC)
# T2 sequence (Q9Y277 1-283): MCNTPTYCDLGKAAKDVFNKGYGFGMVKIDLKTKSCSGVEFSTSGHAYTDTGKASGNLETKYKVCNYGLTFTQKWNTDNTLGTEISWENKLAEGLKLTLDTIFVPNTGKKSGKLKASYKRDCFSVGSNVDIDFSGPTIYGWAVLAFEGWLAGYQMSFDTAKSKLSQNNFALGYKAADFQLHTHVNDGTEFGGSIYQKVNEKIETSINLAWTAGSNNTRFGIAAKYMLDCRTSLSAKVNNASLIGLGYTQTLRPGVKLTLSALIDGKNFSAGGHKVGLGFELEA
# Experimental: as §1, §2
# PC12 cells [2] = assay: Cytochrome c leakage suppressing action (cytochrome c ELISA of cytoplasmic protein); assay type: cell-based; details: DMEM with 0.5% FCS, 0.3 μmol/L Compound (5), 16 hours, 0.5% FCS group without compound 19.4
# Experimental: The effect of Compound (5) on VDAC function was evaluated by determining the amount of cytochrome c leakage in the cytoplasm of PC12 cells.
# PC12 cells, pre-cultured in a DMEM (Dulbecco's Modified Eagle's Medium) containing 10% FCS (Fetal Calf Serum), were sown to a culture dish of 10 cm diameter (Falcon) and cultured until they became nearly confluent. After the culture dish was washed with DMEM, a DMEM containing 0.5% FCS (0.5% FCS group) or a DMEM containing 0.5% FCS and 0.3 μmol/L Compound (5) (0.5% FCS+Compound (5) group) was added, and the cells were further cultured for 16 hours. The cells suspended in the culture broth and the cells adhering to the culture dish, detached by trypsin-EDTA treatment, were recovered. The recovered cells, after being washed with PBS, were ice-cooled in a digitonin solution [10 mmol/L HEPES, 0.3 mol/L mannitol, 0.1% (w/v) BSA, 100 μmol/L digitonin] (100 μL) for 5 minutes to extract cytoplasmic protein. After the obtained cytoplasmic protein was centrifuged at 8500×g for 5 minutes, 12 μL of the supernatant was analyzed using an assay kit [cytochrome c ELISA kit (MBL) and […] (Pierce), respectively] to determine its cytochrome c content and protein content. Subsequently, the cytochrome c content per unit amount of total protein was calculated, and this was taken as the amount of cytochrome c leakage (ng/mg). The results are shown in [Table 1].
# PC12 cells [3] = assay: Apoptosis-suppressing action: nucleosome content (Cell Death Detection ELISA), low serum-induced apoptosis; assay type: cell-based; details: DMEM with 0.5% FCS, 0.3 μmol/L Compound (5), 24 hours, 10% FCS group = 100%, 0.5% FCS group 422
# Experimental: The apoptosis-suppressing action of Compound (5) was evaluated by determining the nucleosome content in PC12 cells.
# PC12 cells, pre-cultured in a DMEM containing 10% FCS, were sown to a 24-well culture plate to obtain a concentration of 6×10^4 cells/well, and cultured for 24 hours. After the culture plate was washed with DMEM, a DMEM containing 0.5% FCS (0.5% FCS group) or a DMEM containing 0.5% FCS and 0.3 μmol/L Compound (5) (0.5% FCS+Compound (5) group) was added, and the cells were further cultured for 24 hours. Also, as a control group, the same procedures were carried out using a DMEM containing 10% FCS (10% FCS group). The cells suspended in the culture broth and the cells adhering to the culture plate, detached by trypsin-EDTA treatment, were recovered. According to the protocol of an apoptosis assay kit with nucleosome detection as an index (Cell Death Detection ELISA, Roche), the recovered cells were suspended in 500 μL of the cytolytic solution attached to said assay kit. After the suspension was ice-cooled for 30 minutes, it was centrifuged at 15, 000 rpm for 10 minutes and 400 μL of the supernatant was recovered. Said supernatant was diluted 2 fold and subjected to ELISA to determine its nucleosome content. Subsequently, taking the nucleosome content in the 10% FCS group as 100%, percentage in each group was calculated. The results are shown in [Table 2].
# PC12 cells [4] = assay: Mitochondria respiration activity-increasing action using Alamar Blue; assay type: cell-based; details: FCS-free DMEM, 3 μmol/L, 3 hours, B-27 addition group = 100%, non-addition group 73.2%±1.9%, mean±standard deviation, n=7
# Experimental: The mitochondria respiration activity-increasing action of Compound (5) was evaluated using Alamar Blue.
# (§3) After PC12 cells, pre-cultured in a DMEM containing 10% fetal calf serum (FCS), were suspended in the same medium to obtain a concentration of 2×10^5 cells/mL, the obtained suspension was sown to a 96-well culture plate to obtain a concentration of 0.1 mL/well and cultured for 24 hours. After said culture plate was washed with DMEM, a solution obtained by diluting Compound (5) in FCS-free DMEM to obtain a concentration of 3 μmol/L was added, and cultivation was carried out for 3 hours [Compound (5) addition group]. […]
# (§4) Subsequently, to each well of the culture plate, 10 μL of Alamar Blue solution (Alamar Biosciences), which is a mitochondria respiration activity indicator, was added; fluorescence just after the addition and after the plate was allowed to stand in a 5% CO2 incubator at 37° C. for 10 minutes was determined using a Fluoroscan (Flow Laboratories) [excitation wavelength (Ex.): 538 nm, emission wavelength (Em.): 590 nm], and its variation was obtained.
# Furthermore, taking the fluorescence variation in the B-27 addition group as 100%, relative values of fluorescence variation in the Compound (5) addition group and the Compound (5) non-addition group were calculated.
# PC12 cells [5] = assay: Mitochondria membrane potential-stabilizing action using Rodamin 123; assay type: cell-based; details: FCS-free DMEM, 3 μmol/L, 4 hours, FCS addition group = 100%, non-addition group 131.2±12.9%, mean±standard deviation, n=8
# Experimental: The mitochondria membrane potential-stabilizing action of Compound (5) was evaluated using Rodamin 123 (trade name, Molecular Probe).
# as §3, with “said culture-plate” for “said culture plate”, “for 4” for “for 3”
# as §4, with “Rodamin 123 (trade name, Molecular Probe),” for “10 μL of Alamar Blue solution (Alamar Biosciences),”, “membrane potential” for “respiration activity”, “added to obtain a concentration of 1 μmol/L;” for “added;”, “485” for “538”, “538” for “590”
# Furthermore, taking the fluorescence variation in the FCS addition group as 100%, relative values of fluorescence variation in the Compound (5) addition group and the Compound (5) non-addition group were calculated.
smiles,measurement,setting,value
"Cc1ccccc1OCCCc1oc(-n2ccnc2C)nc1-c1ccc(Cl)cc1 [Compound (5), 4-(4-chlorophenyl)-2-(2-methyl-1-imidazolyl)-5-[3-(2-methylphenoxy)propyl]oxazole]",about 32 kDa protein band (VDAC-1) eluted from Compound A-immobilized particles,[1],eluted selectively
same,about 30 kDa protein band (VDAC-3) eluted from Compound A-immobilized particles,VDAC-3,eluted selectively
same,Amount of cytochrome c leakage,PC12 cells [2],7.0 ng/mg
same,Nucleosome content,PC12 cells [3],176%
same,"fluorescence variation (Alamar Blue), relative value",PC12 cells [4],126.7%±15.7%
same,"fluorescence variation (Rodamin 123), relative value",PC12 cells [5],110.0%±8.0%
